Marks after values point to notes of the source that are not given here.
Legend:
[1] = tested on: three breast cancer cell lines (MDA-MB-231, SK-BR-3 and MCF-7); experiment: ATP-based luminescence cell viability assay, breast panel; set-up: species or system human; conditions: Homo sapiens; MDA-MB-231, SK-BR-3 and MCF-7; 72 h
Protocol: The antiproliferative/cytotoxic effects of the selected OOPs on each cell line were assessed by measuring the cellular ATP levels after 72 h treatments using an ATP-based luminescence assay. This assay, initially developed as a tumor chemosensitivity assay, has shown considerable promise as a general in vitro toxicity assay due to its high sensitivity that allows the detection of a small number of cells. Consequently, it can be applied to both cancer cell lines and primary tissue cells. […] The EC50 values were calculated by nonlinear regression (curve fit) using a sigmoidal dose–response equation (Figure 2A and Figure S2).
The calculated EC50 values ranged between 9.1–100 μΜ (Table 1). The bioactivity of the oleocanthalic acid (7), studied here for the first time for its antiproliferative/cytotoxic activity, was initially evaluated systematically in the three breast cancer cell lines using a concentration range of 10–100 μM. In all cases, the viability measured was ≥80%, predicting EC50 values > 100 μΜ. […] For this reason, oleocanthalic acid (7) was excluded from the rest of this study.
The OOPs tested in this study were first dissolved in an appropriate DMSO volume such as to prepare a final stock solution of 50 mM, which was further used to prepare various compound concentrations in DMSO-based solutions. The final DMSO concentration in the cell culture was maintained constant in all treated groups of any given experiment and never exceeded the value of 0.2% (v/v). For the treatment experiments, cells were plated in 96-well culture plates, in 100 μL of complete medium at a seeding density of 5000–10,000 cells/well—depending on cells’ size and doubling time—and were allowed to adhere overnight (~16 h). The next day, 150 μL of complete medium was added to each well and the cells were treated with various concentrations of OOPs. Each concentration was tested in triplicate and was repeated 2–3 times. To prepare the final concentration solutions, 0.5 μL of a 500× stock of each tested compound in DMSO was added directly into each well in a final volume of 250 μL culture medium and was gently mixed by pipetting. Control wells were prepared under the same experimental conditions by adding only DMSO at a final concentration of 0.2% (v/v). Compounds were not renewed during the entire period of cell exposure. All cells were cultured at 37 °C in a 5% (v/v) CO2 for 24, 48 or 72 h.
Briefly, after the treatment with OOPs, the adapted medium was removed from the dish wells and the cells were washed twice with medium without FBS. Then, the C-lysis (LT27-076) was diluted in PBS (1:2) and a volume of 50 μL was added to each well. […] Cell viability was quantified by measuring luminescence using a multi-mode microplate reader Safire^2 Tecan (software Magellan V6.00 STD.2PC WIN.20000/XP).

[2] = tested on: MCF-7; experiment: Annexin V-FITC/PI staining, flow cytometry; assay type: cell-based, human; conditions: 48 h at EC50
Source text: (§1) To discern whether cell death triggered by OOPs treatment occurred via apoptosis or necrosis under the experimental conditions applied in this study, live cells treated with OOPs were stained simultaneously with FITC-conjugated annexin V and propidium iodide (PI). Annexin V binds to phosphatidylserine (PS) translocating from the inner to the outer leaflet of the plasma membrane in apoptotic cells. Therefore, annexin V-FITC binding to PS labels live apoptotic cells with green FL. […] PS exposure to the extracellular space and cell membrane permeability were analyzed by flow cytometry as described in detail in the Experimental Section. […] OOP concentrations used were equal to the EC50 values for each cell line (Table 1). annexin V and PI staining discriminated between early- (i.e., annexin V +ve and PI −ve) and late-apoptotic cells (i.e., annexin V +ve and PI +ve), as well as between necrotic (i.e., annexin V −ve and PI +ve) and live (i.e., annexin V −ve and PI −ve) cells (Table 4).
(§2) Apoptosis and necrosis were assessed by double staining with annexin V-FITC and propidium iodide (PI) and were analyzed using flow cytometry (FACS). Human cancer cells were plated in 96-well culture plates in 100 μL of complete medium and were allowed to adhere overnight (~16 h). […] In detail, 0.5 μL of a 500× stock of each tested compound in DMSO was added directly into each well in a final volume of 250 μL culture medium and was gently mixed by pipetting. Control wells were prepared under the same experimental conditions by adding only DMSO at a final concentration of 0.2% (v/v). At the end of the treatment, the cells were detached by trypsinization, media with serum was added to deactivate trypsin, and the cells from three wells were pooled together by centrifugation (1000 rpm, 5 min, 24 °C), washed with cold PBS, centrifuged (1000 rpm, 5 min, 24 °C) and finally resuspended in cold 1× annexin V binding buffer (10 mM HEPES pH = 7.4, 150 mM NaCl, 2.5 mM CaCl2) at a density of 10^4 cells/mL. Staining was performed by incubating with annexin V- FITC and propidium iodide (PI; BioLegend) for 15 min at room temperature in the dark, according to the manufacturer’s instructions. Negative control samples consisted of cells treated only with 0.2% (v/v) DMSO for the same incubation time length (i.e., 48 h). Cells treated with Triton X-100 (0.25% (v/v)) for 5 min at 4 °C were used as controls for 100% permeabilization of the plasma membrane and maximum fluorescence staining with PI (positive control for cells in necrosis). The presence of live, apoptotic or necrotic cells was assessed with the FACS Calibur (Becton–Dickinson, San Jose, CA, USA). In total, 10,000 cells were analyzed per measurement and the acquired data were analyzed using the FlowJo V.10.0.8 software (Tree Star Inc., Ashland, OR, USA). Each condition was analyzed in duplicate, and the results presented are from 2 or 3 independent experiments.
(§3) Data showing OOPs’ apoptotic/necrotic effect were derived from two or three independent experiments and were presented as the means ± SE of the percentage (%) of both annexin V-positive cells (early apoptotic events) and % of annexin V/PI positive cells (late apoptotic events) over the whole cell population normalized to the corresponding events of the control cells, as determined using the FlowJo software.

[3] = tested on: HT-29; experiment: Annexin V-FITC/PI staining, flow cytometry; assay type: cell-based, human; conditions: 48 h at EC50
Source text: as §1, §2, §3

[4] = tested on: A2058; experiment: Annexin V-FITC/PI staining, flow cytometry; assay type: cell-based, human; conditions: 48 h at EC50
Source text: as §1, §2, §3

[5] = tested on: HaCaT cells; set-up: method as in PMID 27878290, PMID 35630786; conditions: cited from earlier work

Row | EC50 [1] [µM] | Compound | % Cell Viability [2] [%] | Early Apoptotic (% ± S.D.) [2] [%] | Late Apoptotic (% ± S.D.) [2] [%] | Total Apoptotic (%) [2] [%] | % Cell Viability [3] | Early Apoptotic (% ± S.D.) [3] [%] | Late Apoptotic (% ± S.D.) [3] [%] | Total Apoptotic (%) [3] | % Cell Viability [4] [%] | Early Apoptotic (% ± S.D.) [4] [%] | Late Apoptotic (% ± S.D.) [4] [%] | Total Apoptotic (%) [4] [%] | sensitivity of cells to treatment [5]
1 | 17.7 to 32.2 | COC(=O)C1=COC(C)[C@@H](C=O)[C@@H]1CC(=O)OCCc1ccc(O)c(O)c1 (mixture of isomers) [3a,b, oleuropein aglycone] | 69 | 7.03 ± 0.3 | 1.29 ± 0.8 | 8.31 ± 1.2 | 41 ^a % | 6.95 ± 1.5 | 1.55 ± 1.5 | 8.50 ± 1.8 ^a % | 24 | 11.88 ± 2.3 | 7.26 ± 1.6 | 19.14 ± 0.7 | 
2 | 10.5 to 24.6 | C/C=C(/C=O)[C@@H](CC=O)CC(=O)OCCc1ccc(O)cc1 [compound 1, oleocanthal] | 65 | 6.30 ± 2.3 | 3.77 ± 0.8 | 10.07 ± 3.1 | 66% | 5.53 ± 1.1 | 6.10 ± 4.3 |  | 36 | 5.05 ± 2.7 | 2.35 ± 1.7 | 7.40 ± 4.4 | resistant
3 |  | C/C=C(/C=O)[C@@H](CC=O)CC(=O)OCCc1ccc(O)c(O)c1 [compound 2, oleacein] |  |  |  |  |  |  |  |  |  |  |  |  | resistant

— publication PMC9820430, “New Affordable Methods for Large-Scale Isolation of Major Olive Secoiridoids and Systematic Comparative Study of Their Antiproliferative/Cytotoxic Effect on Multiple Cancer Cell Lines of Different Cancer Origins” (International Journal of Molecular Sciences, 2022)
